The values below come from PubChem BioAssay (NCI).

Assay in all cases: NCI-60 cell line screen, 48 h
Assay [1] relates to A549 NSCLC.
The test system of assay [2] is ACHN renal.
Assay [3] deals with HOP-62 NSCLC.
Assay [4] relates to NCI-H460 lung.
Assay [5] relates to EKVX NSCLC.
For assay [6], the system named is SF-295 CNS.
Assay [7] has as its system T-47D breast.
Assay [8] relates to NCI-H226 lung.
Assay [9] has as its system MDA-MB-435.
The subject of assay [10] is COLO 205 colon.
Assay [11] has as its system MDA-N.
The subject of assay [12] is SK-MEL-2 melanoma.

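A five-concentration, 48-hour dose response in 96-well plates underlies each endpoint, interpolated linearly between surrounding concentrations. GI50 marks 50% less growth. TGI: concentration producing complete growth inhibition.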

As for `CCOC(=O)NC(Nc1ccc(F)cc1)(C(=O)OCC)C(F)(F)F` (configuration not stated), the TGI in assay [1], in assay [2], in [3], in [4], in [5] and in assay [6] was greater than 100 µM in each case. The TGI in assay [7], in assay [8], in [9], in assay [10] and in assay [11] was greater than 100 µM throughout.

`[B-][P+](CC[P+]1([B-])[C@@H](C)[C@@H](O)[C@H](O)[C@@H]1C)(c1ccccc1)c1ccccc1OC` (some centres not stated): the TGI in assay [12] amounted to 30.2 µM; in assay [1], 28.8 µM; in assay [2], 31.6 µM; in assay [3], 33.6 µM; in assay [4], 32 µM; in assay [5], 25 µM. Further, the TGI in assay [6] was determined as 29.4 µM; in [7], 37.3 µM; in [8], 31.8 µM; in assay [9] it was 30.4 µM; in assay [10], 32.6 µM; in [11], 29.6 µM.

For the molecule `C=C1C(=O)O[C@H]2C1C[C@@H](OC(C)=O)/C(C)=C/CC[C@@]1(C)O[C@H]21` (some centres not stated), the TGI was 57.9 µM in [12]; greater than 100 µM in [1]; 15.2 µM in assay [2]; 34.5 µM in assay [3]; greater than 100 µM in assay [4]; 35.2 µM in [5]. The TGI came to 50.9 µM in assay [6]; 21.5 µM in [7]; 87.7 µM in assay [9]; 14.2 µM in assay [10]; 18.7 µM in assay [11].

On to `O=C1CC(CC(=O)c2ccc(Br)cc2)C(=O)/C1=C(/O)c1ccc(Br)cc1` (configuration not stated), for which the TGI in assay [12], in [1], in [2], in assay [3], in assay [4] and in [5] was greater than 100 µM each time. The TGI in [6], in assay [7], in assay [8], in assay [9], in assay [10] and in assay [11] was greater than 100 µM throughout.

With `COc1ccc(-c2c3c(n(C4OC(CO)C(O)C(O)C4O)c(=S)c2C#N)CCCC3)cc1` (configuration not stated), the TGI in [12], in assay [1], in assay [2], in [3], in [4] and in assay [5] was greater than 100 µM in each case. Further, the TGI in [6], in assay [7], in assay [8], in assay [9], in [10] and in [11] was greater than 100 µM each time.

On to `COc1cc2c(c(OC)c1OC)-c1ccc(SC)c(=O)cc1[C@@H](O)CC2`, for which the TGI is greater than 100 µM in assay [1]; greater than 100 µM in [2]; greater than 100 µM in [3]; greater than 100 µM in [4]; greater than 100 µM in assay [7]; 0.0169 µM in assay [8]. The molecule also gave a TGI in [11] of 0.000318 µM. Besides, the GI50 in assay [5] and in assay [7] was greater than 100 µM in each case.

As for `NC1CCC(N(CC(=O)O)CC(=O)O)C(N(CC(=O)O)CC(=O)O)C1` (configuration not stated), the TGI in assay [12], in assay [1], in [2], in assay [3], in [4] and in assay [6] was greater than 100 µM each time. Besides, the TGI in assay [7], in assay [8], in [9], in [10] and in [11] was greater than 100 µM each time.

With `O=C1CCc2ccc(O)c(c2)Oc2ccc(cc2)C(Sc2ccccc2)CCO1` (configuration not stated), the TGI is 37.3 µM in assay [12]; 59 µM in assay [1]; 32.1 µM in assay [2]; 30.9 µM in assay [3]; 28.5 µM in assay [5]; 38.2 µM in assay [6]. Moreover, the TGI in [7] is 54.1 µM; in [8] it was 30.2 µM; in assay [9], 41.9 µM; in [10], 33.1 µM; in assay [11], 34.8 µM.

As to `COc1c(C(=O)NCCN(CCNC(=O)c2cccc(-c3cccc(C(=O)N(C)C)c3OC)c2OC)CCNC(=O)c2cccc(-c3cccc(C(=O)N(C)C)c3OC)c2OC)cccc1-c1cccc(C(=O)N(C)C)c1OC`, the TGI in assay [1], in [2], in assay [3], in assay [4], in assay [5] and in [6] was greater than 100 µM throughout. The TGI in assay [7] was greater than 100 µM; in assay [8] it was 36.6 µM; in assay [9], 39.8 µM; in [10], 48.6 µM; in assay [11], 37.9 µM.

For the molecule `CC(C)(Cl)C(Br)CCC(Br)(CCl)C(Cl)CBr` (configuration not stated), the TGI in [12], in assay [2], in assay [3], in assay [4], in assay [5] and in assay [6] was greater than 10 µM each time. In addition, the TGI in assay [7], in [8], in [9], in [10] and in [11] was greater than 10 µM in each case.

Turning to `COC(=O)/C=C1/OC(c2ccccc2)=C(C)C1=O`, the TGI was 25.7 µM in [2]; 31.4 µM in assay [3]; 39.2 µM in assay [4]; 32 µM in assay [5]; 26.1 µM in [6]; 42.7 µM in [7]. The TGI was found to be 38.6 µM in [8], 27.5 µM in assay [9], 31.3 µM in assay [10] and 5.71 µM in assay [11].

For `O=C(NNC(=S)NC1CCCCC1)C12CC3CC(CC(C3)C1)C2`, the TGI in assay [12], in [1], in assay [2], in [3], in assay [4] and in assay [6] was greater than 100 µM throughout. Besides, the TGI in assay [7], in [8], in [9], in assay [10] and in assay [11] was greater than 100 µM in each case.
